# Laboratory results taken from PubChem BioAssay (NCI).
#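 Cultured in 96-well plates, cells were exposed to test compound for 48 hours across five concentrations. The concentration for full growth arrest is given as TGI.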
# Experiments:
# Assay in all cases: DTP human tumour cell line panel, 48 h
# [1] = system: A549 NSCLC
# [2] = system: ACHN renal
# [3] = system: BT-549 breast
# [4] = system: CCRF-CEM leukemia
# [5] = system: COLO 205 colon
# [6] = system: DU-145 prostate
# [7] = system: HCC-2998 colon
# [8] = system: HCT-116 colon
# [9] = system: HCT-15 colon
# [10] = system: HL-60(TB) leukemia
# [11] = system: HOP-62 NSCLC
# [12] = system: HOP-92 NSCLC
# [13] = system: HS 578T breast
# [14] = system: HT29 colon
# [15] = system: IGROV1 ovarian
# [16] = system: KM12 colon
# [17] = system: LOX IMVI melanoma
# [18] = system: M14 melanoma
# [19] = system: MALME-3M melanoma
# [20] = system: MCF7 breast
# [21] = system: MDA-MB-231 breast
# [22] = system: MDA-MB-435
# [23] = system: MDA-N
# [24] = system: MOLT-4 leukemia
# [25] = system: NCI-H226 lung
# [26] = system: NCI-H23 lung
# [27] = system: NCI-H522 lung
# [28] = system: NCI/ADR-RES ovarian
# [29] = system: OVCAR-3 ovarian
# [30] = system: OVCAR-4 ovarian
# [31] = system: OVCAR-5 ovarian
# [32] = system: OVCAR-8 ovarian
# [33] = system: PC-3 prostate
# [34] = system: RPMI-8226 leukemia
# [35] = system: RXF 393 renal
# [36] = system: SF-268 CNS
# [37] = system: SF-295 CNS
# [38] = system: SF-539 CNS
# [39] = system: SK-MEL-2 melanoma
# [40] = system: SK-MEL-28 melanoma
# [41] = system: SK-MEL-5 melanoma
# [42] = system: SK-OV-3 ovarian
# [43] = system: SN12C renal
# [44] = system: SNB-19 CNS
# [45] = system: SNB-75 CNS
# [46] = system: SR leukemia
# [47] = system: SW-620 colon
# [48] = system: T-47D breast
# [49] = system: TK-10 renal
# [50] = system: U251 CNS
# [51] = system: UACC-257 melanoma
# [52] = system: UACC-62 melanoma
# [53] = system: UO-31 renal
# [54] = system: 786-0 renal
# [55] = system: CAKI-1 renal
# [56] = system: EKVX NSCLC
# [57] = system: K-562 leukemia
# [58] = system: NCI-H460 lung
# [59] = system: A498 renal
smiles,measurement,setting,value
COc1ccc2c(C)cc(N/N=C/c3sccc3C)nc2c1,TGI,[1],29.4 µM
same,TGI,[2],> 100 µM
same,TGI,[3],28.9 µM
same,TGI,[4],> 100 µM
same,TGI,[5],17.9 µM
same,TGI,[6],23.3 µM
same,TGI,[7],25.7 µM
same,TGI,[8],16.1 µM
same,TGI,[9],20.3 µM
same,TGI,[10],> 100 µM
same,TGI,[11],28.4 µM
same,TGI,[12],47.5 µM
same,TGI,[13],36.7 µM
same,TGI,[14],12.5 µM
same,TGI,[15],27.4 µM
same,TGI,[16],21.8 µM
same,TGI,[17],21.5 µM
same,TGI,[18],24.1 µM
same,TGI,[19],20.8 µM
same,TGI,[20],26.1 µM
same,TGI,[21],5.9 µM
same,TGI,[22],35.4 µM
same,TGI,[23],27.3 µM
same,TGI,[24],48.6 µM
same,TGI,[25],25.9 µM
same,TGI,[26],33.1 µM
same,TGI,[27],21.9 µM
same,TGI,[28],26.2 µM
same,TGI,[29],10.6 µM
same,TGI,[30],> 100 µM
same,TGI,[31],28.1 µM
same,TGI,[32],30.3 µM
same,TGI,[33],31.9 µM
same,TGI,[34],26.6 µM
same,TGI,[35],32 µM
same,TGI,[36],85.9 µM
same,TGI,[37],28.4 µM
same,TGI,[38],27.5 µM
same,TGI,[39],29.8 µM
same,TGI,[40],35.8 µM
same,TGI,[41],18.9 µM
same,TGI,[42],31.9 µM
same,TGI,[43],20.4 µM
same,TGI,[44],41.6 µM
same,TGI,[45],26.1 µM
same,TGI,[46],87.3 µM
same,TGI,[47],69.4 µM
same,TGI,[48],33.6 µM
same,TGI,[49],43.3 µM
same,TGI,[50],51.9 µM
same,TGI,[51],22.4 µM
same,TGI,[52],34.9 µM
same,TGI,[53],54.8 µM
CC1CC(=O)N2CCCNC2=C1C#N (stereo not drawn),TGI,[54],> 100 µM
same,TGI,[1],> 100 µM
same,TGI,[3],> 100 µM
same,TGI,[55],> 100 µM
same,TGI,[4],> 100 µM
same,TGI,[5],> 100 µM
same,TGI,[6],> 100 µM
same,TGI,[56],> 100 µM
same,TGI,[7],> 100 µM
same,TGI,[8],> 100 µM
same,TGI,[9],> 100 µM
same,TGI,[11],> 100 µM
same,TGI,[13],> 100 µM
same,TGI,[14],> 100 µM
same,TGI,[15],> 100 µM
same,TGI,[57],> 100 µM
same,TGI,[16],> 100 µM
same,TGI,[17],> 100 µM
same,TGI,[18],> 100 µM
same,TGI,[19],> 100 µM
same,TGI,[20],> 100 µM
same,TGI,[21],> 100 µM
same,TGI,[22],> 100 µM
same,TGI,[23],> 100 µM
same,TGI,[24],> 100 µM
same,TGI,[25],> 100 µM
same,TGI,[26],> 100 µM
same,TGI,[58],> 100 µM
same,TGI,[27],> 100 µM
same,TGI,[28],> 100 µM
same,TGI,[29],> 100 µM
same,TGI,[30],> 100 µM
same,TGI,[32],> 100 µM
same,TGI,[33],> 100 µM
same,TGI,[34],> 100 µM
same,TGI,[35],> 100 µM
same,TGI,[36],> 100 µM
same,TGI,[37],> 100 µM
same,TGI,[38],> 100 µM
same,TGI,[39],> 100 µM
same,TGI,[40],> 100 µM
same,TGI,[41],> 100 µM
same,TGI,[42],> 100 µM
same,TGI,[43],> 100 µM
same,TGI,[44],> 100 µM
same,TGI,[45],> 100 µM
same,TGI,[46],> 100 µM
same,TGI,[47],> 100 µM
same,TGI,[48],> 100 µM
same,TGI,[49],> 100 µM
same,TGI,[50],> 100 µM
same,TGI,[51],> 100 µM
same,TGI,[52],> 100 µM
same,TGI,[53],> 100 µM
Cc1c(C)c(S(=O)(=O)N(CCCCCN)OCCCN)c(C)c2c1OC(C)(C)CC2,TGI,[54],29 µM
same,TGI,[59],40.9 µM
same,TGI,[1],> 100 µM
same,TGI,[2],39 µM
same,TGI,[3],29.8 µM
same,TGI,[55],> 59.1 µM
same,TGI,[4],> 23.5 µM
same,TGI,[5],> 74.8 µM
same,TGI,[6],> 70.5 µM
same,TGI,[56],25.3 µM
same,TGI,[7],6.05 µM
same,TGI,[8],30 µM
same,TGI,[9],42.5 µM
same,TGI,[10],5.92 µM
same,TGI,[11],25.1 µM
same,TGI,[12],67.6 µM
same,TGI,[13],28.4 µM
same,TGI,[14],28.7 µM
same,TGI,[15],11 µM
same,TGI,[57],> 59.7 µM
same,TGI,[16],8.93 µM
same,TGI,[17],> 44.4 µM
same,TGI,[18],> 100 µM
same,TGI,[19],28 µM
same,TGI,[20],> 100 µM
same,TGI,[21],31.7 µM
same,TGI,[22],15.3 µM
same,TGI,[23],31.1 µM
same,TGI,[24],48.5 µM
same,TGI,[25],32.7 µM
same,TGI,[26],33 µM
same,TGI,[58],19.7 µM
same,TGI,[27],13.3 µM
same,TGI,[28],41.7 µM
same,TGI,[29],19.9 µM
same,TGI,[30],13.3 µM
same,TGI,[31],> 55.2 µM
same,TGI,[32],> 50 µM
same,TGI,[33],18 µM
same,TGI,[34],18 µM
same,TGI,[35],71.9 µM
same,TGI,[36],28.5 µM
same,TGI,[37],45.8 µM
same,TGI,[38],> 100 µM
same,TGI,[39],11.2 µM
same,TGI,[40],65.4 µM
same,TGI,[41],> 50.4 µM
same,TGI,[42],32 µM
same,TGI,[43],> 100 µM
same,TGI,[44],24.8 µM
same,TGI,[45],25.7 µM
same,TGI,[47],> 40.2 µM
same,TGI,[48],> 57.8 µM
same,TGI,[49],37.8 µM
same,TGI,[50],> 36.9 µM
same,TGI,[51],38.6 µM
same,TGI,[52],30.3 µM
same,TGI,[53],41.1 µM
O=C1NCC2(CCN(Cc3ccccc3)CC2)N1,TGI,[54],> 100 µM
same,TGI,[1],> 100 µM
same,TGI,[2],> 100 µM
same,TGI,[3],> 100 µM
same,TGI,[55],> 100 µM
same,TGI,[4],> 100 µM
same,TGI,[5],> 100 µM
same,TGI,[6],> 100 µM
same,TGI,[56],> 100 µM
same,TGI,[7],> 100 µM
same,TGI,[8],> 100 µM
same,TGI,[9],> 100 µM
same,TGI,[10],> 100 µM
same,TGI,[11],> 100 µM
same,TGI,[12],> 100 µM
same,TGI,[13],> 100 µM
same,TGI,[14],> 100 µM
same,TGI,[15],> 100 µM
same,TGI,[57],> 100 µM
same,TGI,[16],> 100 µM
same,TGI,[17],> 100 µM
same,TGI,[18],> 100 µM
same,TGI,[19],> 100 µM
same,TGI,[20],> 100 µM
same,TGI,[21],> 100 µM
same,TGI,[22],> 100 µM
same,TGI,[23],> 100 µM
same,TGI,[24],> 100 µM
same,TGI,[25],> 100 µM
same,TGI,[26],> 100 µM
same,TGI,[58],> 100 µM
same,TGI,[27],> 100 µM
same,TGI,[28],> 100 µM
same,TGI,[29],> 100 µM
same,TGI,[30],> 100 µM
same,TGI,[31],> 100 µM
same,TGI,[32],> 100 µM
same,TGI,[33],> 100 µM
same,TGI,[34],> 100 µM
same,TGI,[35],> 100 µM
same,TGI,[36],> 100 µM
same,TGI,[37],> 100 µM
same,TGI,[38],> 100 µM
same,TGI,[39],> 100 µM
same,TGI,[40],> 100 µM
same,TGI,[41],> 100 µM
same,TGI,[42],> 100 µM
same,TGI,[43],> 100 µM
same,TGI,[44],> 100 µM
same,TGI,[45],> 100 µM
same,TGI,[46],> 100 µM
same,TGI,[47],> 100 µM
same,TGI,[48],> 100 µM
same,TGI,[49],> 100 µM
same,TGI,[50],> 100 µM
same,TGI,[51],> 100 µM
same,TGI,[52],> 100 µM
same,TGI,[53],> 100 µM
